Counter-ions that a name gives are not always drawn.

`c1nc(Nc2ccc3[nH]ccc3c2)c2sc(-c3ccc(CNCCN4CCOCC4)cc3)cc2n1` [Example 24, (1H-Indol-5-yl)-(6-{4-[(2-morpholin-4-yl-ethylamino)-methyl]-phenyl}-thieno[3,2-d]pyrimidin-4-yl)-amine]: the melting point was in the range of 100 to 111 °C.

On to `Fc1ccc(-c2cc3ncnc(Nc4ccc5[nH]ccc5c4)c3s2)cc1Cl` [Example 12, [6-(3-Chloro-4-fluoro-phenyl)-thieno[3,2-d]pyrimidin-4-yl]-(1H-indol-5-yl)-amine], for which the melting point was 175 to 183 °C.

Regarding `Clc1ccc(-c2cc3ncnc(Nc4ccc5[nH]ccc5c4)c3s2)cc1` [Example 3, [6-(4-Chloro-phenyl)-thieno[3,2-d]pyrimidin-4-yl]-(1H-indol-5-yl)-amine], the melting point is 190 to 210 °C.

For `O=C1CCCN1CCCNCc1ccc(-c2cc3ncnc(Nc4ccc5[nH]ccc5c4)c3s2)cc1` [Example 35, 1-(3-{4-[4-(1H-Indol-5-ylamino)-thieno[3,2-d]pyrimidin-6-yl]-benzylamino}-propyl)-pyrrolidin-2-one], the melting point was in the range of 139 to 146 °C.

Compound `CC(=O)NCCNCc1ccc(-c2cc3ncnc(Nc4ccc5[nH]ccc5c4)c3s2)cc1` [Example 43, N-(2-{4-[4-(1H-Indol-5-ylamino)-thieno[3,2-d]pyrimidin-6-yl]-benzylamino}-ethyl)-acetamide] showed a melting point of 142 to 155 °C.

In the case of `c1csc(CNCc2ccc(-c3cc4ncnc(Nc5ccc6[nH]ccc6c5)c4s3)cc2)c1` (as salt: mesylate) [Example 33, (1H-Indol-5-yl)-[6-(4-{[(thiophen-2-ylmethyl)-amino]-methyl}-phenyl)-thieno[3,2-d]pyrimidin-4-yl]-amine], the melting point lay within 111 to 121 °C.

As for `COC(=O)CCNCc1ccc(-c2cc3ncnc(Nc4ccc5[nH]ccc5c4)c3s2)cc1` (as salt: HCl) [Example 17, 3-{4-[4-(1H-Indol-5-ylamino)-thieno[3,2-d]pyrimidin-6-yl]-benzylamino}-propionic Acid Methyl Ester], the melting point lay in the range of 105 to 118 °C.

Compound `CNCc1ccc(-c2cc3ncnc(Nc4ccc5[nH]ccc5c4)c3s2)cc1` (as salt: mesylate) [Example 25, (1H-Indol-5-yl)-[6-(4-methylaminomethyl-phenyl)-thieno[3,2-d]pyrimidin-4-yl]-amine] came in with a melting point of 140 to 147 °C.

In turn, `CCN(CC)CCCn1ccc2cc(Nc3ncnc4cc(-c5ccccc5)sc34)ccc21` [Example 70, [1-(3-Diethylamino-propyl)-1H-indol-5-yl]-(6-phenyl-thieno[3,2-d]pyrimidin-4-yl) -amine] came in with a melting point of 178 to 180 °C.

The compound `c1nc(Nc2ccc3[nH]ccc3c2)c2sc(-c3ccc(CNC4CC4)cc3)cc2n1` [Example 40, [6-(4-Cyclopropylaminomethyl-phenyl)-thieno[3,2-d]pyrimidin-4-yl]-(1H-indol-5-yl)-amine] yielded a melting point of 176 to 180 °C.

With `COCCCNCc1ccc(-c2cc3ncnc(Nc4ccc5[nH]ccc5c4)c3s2)cc1` [Example 22, (1H-Indol-5-yl)-(6-{4-[(3-methoxy-propylamino)-methyl]-phenyl}-thieno[3,2-d]pyrimidin-4-yl)-amine], the melting point lay within 160 to 175 °C.

For `COc1ccc(-c2cc3ncnc(Nc4ccc5[nH]ccc5c4)c3s2)cc1` [Example 5, (1H-Indol-5-yl)-[6-(4-methoxy-phenyl)-thieno[3,2-d]pyrimidin-4-yl]-amine], the melting point was in the range of 150 to 180 °C.

`Cc1c[nH]c2ccc(Nc3ncnc4cc(-c5ccccc5)sc34)cc12` [Example 82, (3-Methyl-1H-indol-5-yl)-(6-phenyl-thieno[3,2-d]pyrimidin-4-yl)-amine] gave a melting point of 221 to 223 °C.

In the case of `c1ccc(COCCNc2ccc(Nc3ncnc4cc(-c5ccccc5)sc34)cc2)cc1` [Example 73, N-(2-Benzyloxy-ethyl)-N′-(6-phenyl-thieno[3,2-d]pyrimidin-4-yl)-benzene-1,4-diamine], the melting point is 201 to 203 °C.
